Results as given in patent US9540418B2, “Polypeptide specifically binding to rare earth nanoparticles and use thereof” (University of Science and Technology of China, priority 2012, dated 2017).

Key:
[1] = Sedimentation / suspension time-dynamics curve of UCN (UV 500 nm); assay type: physicochemical; settings: standing for 120 min; UCN with or without RE-1 coating
Procedure: 3 mg of UCN was mixed with 1.5 mg of RE-1 or its analogues RE-2, RE-3, or RE-5 as well as PEG, and the binding between them was performed according to a binding method. The excess and unbound RE-1 was washed off. The resultant precipitate was resuspended in 3 mL water, sonicated for 1 min, and then placed into a UV detection cell (X72053, Alpha Laboratories Ltd, UK). Observation was made using a UV spectrophotometer (DU-640, Beckman, USA) at an absorption wavelength of 500 nm for 120 min to obtain a time-dynamics curve.

LC3 II in HeLa cells = test: Western blotting of LC3 in HeLa cells; assay type: cell-based
Procedure: Western blotting is performed as follows: After an incubation of 24 h, the cells are collected and lysed with lysis buffer (purchased from Beyotime Biotechnology, China). The lysate is boiled in boiling water for 10 min, subjected to 15% SDS-PAGE, and then transferred to nylon membrane (purchased from Amersham Inc.) by a wet transfer. In the Western blotting, Anti-LC3 (Light Chain 3 Protein Antibody, purchased from Novus Inc., Catalog #: NB 100-2220) is used as primary antibody; GAPDH (purchased from Millipore Inc.) is used as internal reference; and Horseradish peroxidase (HRP) conjugated goat anti-rabbit IgG (H+L) (Goat Anti-Rabbit IgG (H+L), HRP Conjugate) (purchased from Promega Inc.) is used as secondary antibody.
HeLa cells were inoculated into a 24-well cell culturing plate at a density of about 3-5×10^4 cells/well, and cultured overnight for further use. At first, the medium was replaced with fresh DMEM medium, and then 100 μg/mL UCN or UCN+RE-1 was added. An equal volume of PBS was used as blank. A mixture of 100 μg/mL UCN and 10 mg/mL PEG was used as negative control. 100 mM trehalose was used as positive control. Then, western blotting assay was performed.
HeLa cells were inoculated into a 24-well cell culturing plate at a density of about 3-5×10^4 cells/well, and cultured overnight for further use. At first, the medium was replaced with fresh DMEM medium, and then 100 μg/mL UCP or UCP+RE-1 was added. An equal volume of PBS was used as blank. A mixture of 100 μg/mL UCP+AP-1 and a mixture of 400 μg/mL TiO2+AP-1 were used as negative control. 400 μg/mL TiO2 was used as positive control. Then, western blotting assay was performed.

[2] = Dissociation of FITC-RE-1 from UCP over time; assay type: binding; settings: after 48 hr, 37° C., shaking
Procedure: 250 μg FITC-RE-1 was thoroughly mixed with 500 μg UCN. The excess and unbound polypeptides were washed off. Then, the mixture was divided into five aliquots. The aliquots were gently shaked on a shaking table at 37° C. The amount of FITC-RE-1 dissociated in the supernatants was measured by using a fluorescence spectrophotometer at different time points (0 hr, 2 hr, 12 hr, 24 hr, and 48 hr).
The process described above was repeated except that 50 μg FITC-RE-1 and 500 μg UCP were used. The amount of FITC-RE-1 dissociated in the supernatants was measured.

[3] = Binding of FITC-RE-1 to UCP (time, concentration, pH, salt, temperature); settings: 10 μg FITC-RE-1, 100 μg UCP
Procedure: 10 μg of FITC-RE-1 was incubated with 100 μg of UCP for different time periods (2 min, 10 min, 30 min, 120 min, and 720 min). Then, the amount of FITC-RE-1 fluorescent peptide binding to UCP was measured by using fluorescence spectrophotometer.
100 μg of UCP was incubated with FITC-RE-1 at various concentrations (1 μg, 5 μg, 10 μg, and 20 μg) for 1 hr. The excess and unbound peptides were washed off. The amount of FITC-RE-1 fluorescent peptide binding to UCP was measured by using fluorescence spectrophotometer.
(§1) 10 μg of FITC-RE-1 was incubated with 100 μg of UCP dissolved at different pH values (pH 3, 5, 7, 10) for 1 hr. The excess and unbound peptides were washed off. The amount of FITC-RE-1 fluorescent peptide binding to UCP was measured by using fluorescence spectrophotometer.
as §1, with “salt ion concentrations (0 M, 0.15 M, 0.3 M, and 0.5 M NaCl)” for “pH values (pH 3, 5, 7, 10)”
as §1, with “dissolved in water” for “dissolved”, “temperatures (25° C., 37° C., 55° C., and 80° C.)” for “pH values (pH 3, 5, 7, 10)”

ACTARSPWICG [RE-1, RE-0 with terminal amino acids A and G added]
suspension / sedimentation of UCN in water [1]: still in suspension | effect of RE-1 coating of UCN and UCP on LC3 II (LC3 II in HeLa cells; 100 μg/mL UCN+RE-1 or UCP+RE-1): significantly prevented the increase of LC3 II | inhibition of cell autophagy induced by TiO2 (LC3 II in HeLa cells; 400 μg/mL TiO2): could not inhibit | dissociation from UCP [2]: less than 1.5% | binding to UCP at 2 min ([3]; 2 min): 50% | binding to UCP at 10 min ([3]; 10 min): almost binding saturation
